How the values were obtained:
RPTEC/hTERT1 cells = assay: Quantitative RT-PCR of Nrf2 and HO1 in RPTEC/hTERT1 cells; format: cell-based, human; conditions: in vitro
Procedure: FIG. 6. KW6002 alleviates the cisplatin-induced nephrotoxicity associated with apoptosis, lipid metabolism, and oxidative stress. (A) Tail moment assessed by comet assay; 50 cells/condition were analyzed. (B and C) KW6002 attenuates cisplatin-induced renal lipid accumulation, assessed by Red Oil staining. […] Results are the mean±SEM (n=6-9 mice/group). (F-H) KW6002 attenuated cisplatin-induced oxidative stress in RPTEC/hTERT1 cells. (F and G) Gene expression of Nrf2 (F) and HO1 (G). […] Results are the mean±SEM (n=3 independent experiments).
Total RNA from kidney samples was extracted with phenol/chloroform and subsequently precipitated in isopropanol as described previously (71). Total RNA from cultured renal cells was extracted using RNeasy Mini kit (Qiagen) following manufacturer's recommendations.
Reverse transcription was performed on 1 μg of RNA using high-capacity cDNA reverse transcription kit (Thermo Fisher), according the manufacturer's recommendation. Real time PCR was performed on a StepOne device using Taqman Gene Expression Master Mix (Thermo Fisher), following manufacturer's recommendations. […]

tumor cell transcriptome = assay: Whole transcriptome analysis of LLC1 tumors; format: in vivo, mice
Procedure: RNA-seq libraries (n=5-6/group) were generated from 500 ng of total RNA using Illumina® TruSeq® Stranded mRNA Library Prep Kit v2. Briefly, following purification with poly-T oligo attached magnetic beads, the mRNA was fragmented using divalent cations at 94° C. for 2 min. The cleaved RNA fragments were copied into first-strand cDNA using reverse transcriptase and random primers. […] Surplus PCR primers were further removed by purification using AMPure XP beads (Beckman Coulter), and the final cDNA libraries were checked for quality and quantified using capillary electrophoresis. Sequencing was performed on the Illumina® Genome Hiseq4000 as single-end 50 base reads following Illumina's instructions. Reads were mapped onto the mm 10 assembly of Mus musculus genome using STAR v2.5.3a (72). Only uniquely aligned reads were kept for further analyses. Quantification of gene expression was performed using HTSeq-count v0.6.1p1 (73) and gene annotations from Ensembl releases 90 and 102 and “union” mode. Read counts were normalized across libraries with the method proposed by Ander et al. (74). […]

LLC1 cells = assay: γH2AX immunostaining in LLC1 cells; format: cell-based, mouse; conditions: 2 μM cisplatin, 10 nM KW-6002, 6 hours, FIG. 7B
Procedure: FIG. 7. […] Caspase 3/-7 activity (n=3 independent experiments) (A) and the number of γH2AX nuclear foci (n=36-63 nuclei/group) (B) were determined. […] Results are expressed as the mean±SEM (n=3 independent experiments). (E) Tail moment was assessed by comet assay. A total of 50 cells per condition were analyzed. *** P<0.001; 1-way ANOVA followed by Tukey's post hoc test. […] (I) KW6002 increased yH2AX expression in tumors from mice of the LLC1 syngeneic model. Quantification of nuclear yH2AX expression.
Cells were fixed with 4% paraformaldehyde, permeabilized with DPBS/0.1% Triton X100 and incubated with γH2AX (Ser139) antibody (1/400; #9718, Cell Signaling Technology) and then, Alexa Fluor 488 secondary antibody (1/200; Life Technologies). Samples were examined on an immunofluorescence microscope (Leica™ DMI8) and γH2AX nuclear foci were counted.

How did the “cisplatin-induced increase in expression of Nrf2” value (RPTEC/hTERT1 cells; FIG. 6F) turn out when `CCn1c(=O)c2c(nc(/C=C/c3ccc(OC)c(OC)c3)n2C)n(CC)c1=O` [KW-6002, 8-[(E)-2-(3,4-dimethoxyphenyl)vinyl]-1,3-diethyl-7-methyl-3,7-dihydro-1H-purine-2,6-dione] was run?
The value was “normalized”.

And the “cisplatin-induced increase in expression of HO1” value (RPTEC/hTERT1 cells; FIG. 6G)?
The value was “normalized”.

What about the “selectively modulated genes that were downregulated” value (tumor cell transcriptome; among the 2497) of the same molecule?
The value was 1016 genes.

What about the “genes selectively modulated by cisplatin/KW-6002 co-treatment vs. vehicle” value (tumor cell transcriptome; out of 3923) of the same molecule?
Its value is 2497 genes.

And the “DNA damage: γH2AX nuclear foci” value (LLC1 cells)?
The value was “increased number of H2AX+ cells”.

Source: patent publication US20250161312A1, “A METHOD FOR THE TREATMENT OF CHEMOTHERAPEUTIC DRUG-INDUCED NEPHROTOXICITY” (INSTITUT NATIONAL DE LA SANTÉ ET DE LA RECHERCHE MÉDICALE, priority 2022, published 2025)
